Experiments:
[1] = clinical trials, patients; cited from earlier work
[2] = target: T1, chimeric EGFR/erbB2 kinase (Homo sapiens, UniProt P04626); experiment: erbB2 receptor autophosphorylation, in vitro cell assay in transfected 3T3 cells; assay type: cell-based; details: intact 3T3 cells transfected with chimeric EGFR/erbB2 kinase; EGF-stimulated phosphotyrosine; read-out: Potency (IC50) for the erbB2 receptor
T1 construct: EGFR extracellular/erbB2 intracellular; expressed in transfected cells; host or cells: 3T3 cells; the other entry of the earlier key: EGFR (P00533, Epidermal growth factor receptor)
T1 sequence (P04626 720-1255 limits assumed, change not shown): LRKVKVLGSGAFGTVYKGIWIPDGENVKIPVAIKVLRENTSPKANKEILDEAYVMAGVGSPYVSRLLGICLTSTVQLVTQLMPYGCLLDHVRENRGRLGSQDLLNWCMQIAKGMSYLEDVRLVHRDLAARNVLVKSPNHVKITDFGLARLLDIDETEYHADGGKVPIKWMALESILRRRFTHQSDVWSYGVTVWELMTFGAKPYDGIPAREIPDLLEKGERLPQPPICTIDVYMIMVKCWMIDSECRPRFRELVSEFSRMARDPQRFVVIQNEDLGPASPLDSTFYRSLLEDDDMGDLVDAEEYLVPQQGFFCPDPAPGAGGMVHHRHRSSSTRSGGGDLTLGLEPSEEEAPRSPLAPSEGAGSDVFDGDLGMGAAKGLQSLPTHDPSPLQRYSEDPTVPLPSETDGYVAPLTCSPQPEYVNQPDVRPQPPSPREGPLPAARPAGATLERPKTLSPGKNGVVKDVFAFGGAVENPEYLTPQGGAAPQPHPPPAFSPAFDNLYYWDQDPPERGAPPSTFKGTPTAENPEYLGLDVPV
Protocol: The in vitro activity of small molecule compounds as erbB kinase inhibitors in intact cells may be determined by the following procedure. Cells, for example 3T3 cells transfected with human EGFR (Cohen et al. J. Virology 67:5303, 1993) or with chimeric EGFR/erbB2 kinase (EGFR extracellular/erbB2 intracellular, Fazioli et al. Mol. Cell. Biol. 11: 2040, 1991) are plated in 96-well plates at 12,000 cells per well in 100 μl medium (Dulbecco's […] (DMEM) with 5% fetal calf serum, 1% pen/streptomycin, 1% L-glutamine) and incubated at 37° C., 5% CO2 Test compounds are solubilized in DMSO at a concentration of 10 mM, and tested at final concentrations of 0, 0.3 μM, 1 μM, […], 0.1 μM and 10 μM in the medium. The cells are incubated at 37° C. for 2 h. EGF (40 ng/ml final) is added to each well and cells incubate at room temperature for 15 min followed by aspiration of medium, then 100 μl/well cold fixative (50% ethanol/50% acetone containing 200 micromolar sodium orthovanadate) is added. The plate is incubated for 30 min at room temperature followed by washing with wash buffer (0.5% Tween 20 in phosphate buffered saline). Blocking buffer (3% bovine serum albumin, 0.05% Tween 20, 200 μM sodium orthovanadate in phosphate buffered saline, 100 μl/well) is added followed by incubation for 2 hours at room temperature followed by two washes with wash buffer. PY54 monoclonal anti-phosphotyrosine antibody directly conjugated to horseradish peroxidase (50 μl/well, 1 μg/ml in blocking buffer) or blocked conjugate (1 μg/ml with 1 mM phosphotyrosine in blocking buffer, to check specificity) is added and the plates incubated for 2 hours at room temperature. The plate wells are then washed 4 times with wash buffer. The colorimetric signal is developed by addition of TMB Microwell Peroxidase Substrate (Kirkegaard and Perry, Gaithersburg, Md.), 50 μl per well, and stopped by the addition of 0.09 M sulfuric acid, 50 μl per well. Absorbance at 450 nm represents phosphotyrosine content of proteins. The increase in signal in EGF-treated cells over control (non-EGF treated) represents the activity of the EGFR or EGFR/chimera respectively. The potency of an inhibitor is determined by measurement of the concentration of compound needed to inhibit the increase in phosphotyrosine by 50% (IC50) in each cell line. The selectivity of the compounds for erbB2 vs. EGFR is determined by comparison of the IC50 for the EGFR transfectant vs. that for the erbB2/EGFR chimera transfectant. Thus, for example, a compound with an IC50 of 100 nM for the EGFR transfectant and 10 nM for the erbB2/EGFR chimera transfectant is considered 10-fold selective for erbB2 kinase.
(§1) The IC50 values for the inhibition of erbB1 receptor autophosphorylation and erbB2 receptor autophophorylation were determined using the in vitro cell assays described above.

[3] = target: T2, human EGFR (Homo sapiens, UniProt P00533); experiment: erbB1 receptor autophosphorylation, in vitro cell assay in transfected 3T3 cells, used for the erbB2 versus erbB1 selectivity ratio; assay type: cell-based; details: comparison of IC50 for EGFR transfectant vs. erbB2/EGFR chimera transfectant
T2 construct: expressed in transfected cells; host or cells: 3T3 cells
T2 sequence (P00533 25-1210): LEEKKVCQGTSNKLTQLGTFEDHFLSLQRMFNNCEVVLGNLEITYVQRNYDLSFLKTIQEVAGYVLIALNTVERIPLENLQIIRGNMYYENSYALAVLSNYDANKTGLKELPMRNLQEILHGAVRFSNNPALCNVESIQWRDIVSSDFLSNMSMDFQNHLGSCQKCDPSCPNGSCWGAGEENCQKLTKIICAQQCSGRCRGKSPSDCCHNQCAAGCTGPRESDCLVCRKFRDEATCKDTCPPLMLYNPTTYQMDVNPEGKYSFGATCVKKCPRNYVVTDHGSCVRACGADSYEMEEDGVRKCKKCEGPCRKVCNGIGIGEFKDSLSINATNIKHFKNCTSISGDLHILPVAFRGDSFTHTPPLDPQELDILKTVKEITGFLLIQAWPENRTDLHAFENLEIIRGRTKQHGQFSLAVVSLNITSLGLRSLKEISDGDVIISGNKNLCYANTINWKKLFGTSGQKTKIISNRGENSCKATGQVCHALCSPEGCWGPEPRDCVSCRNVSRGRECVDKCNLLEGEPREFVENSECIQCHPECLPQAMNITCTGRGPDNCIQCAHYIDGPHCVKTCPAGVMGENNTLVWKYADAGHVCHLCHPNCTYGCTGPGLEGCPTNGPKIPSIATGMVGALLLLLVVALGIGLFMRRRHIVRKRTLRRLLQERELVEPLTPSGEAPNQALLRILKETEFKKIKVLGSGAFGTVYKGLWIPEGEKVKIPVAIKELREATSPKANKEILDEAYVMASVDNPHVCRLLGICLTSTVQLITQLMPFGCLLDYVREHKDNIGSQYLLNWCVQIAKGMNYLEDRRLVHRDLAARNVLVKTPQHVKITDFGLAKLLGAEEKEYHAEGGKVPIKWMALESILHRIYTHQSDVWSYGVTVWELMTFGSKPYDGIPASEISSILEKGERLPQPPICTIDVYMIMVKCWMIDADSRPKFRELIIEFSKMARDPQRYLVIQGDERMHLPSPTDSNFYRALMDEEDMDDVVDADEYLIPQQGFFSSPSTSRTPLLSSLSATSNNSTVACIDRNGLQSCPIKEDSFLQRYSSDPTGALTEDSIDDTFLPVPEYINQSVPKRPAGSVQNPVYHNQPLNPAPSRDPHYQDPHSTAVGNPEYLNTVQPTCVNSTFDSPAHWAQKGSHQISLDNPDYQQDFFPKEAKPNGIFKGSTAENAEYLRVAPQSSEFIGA
Protocol: The in vitro activity of small molecule compounds as erbB kinase inhibitors in intact cells may be determined by the following procedure. […] The cells are incubated at 37° C. for 2 h. EGF (40 ng/ml final) is added to each well and cells incubate at room temperature for 15 min followed by aspiration of medium, then 100 μl/well cold fixative (50% ethanol/50% acetone containing 200 micromolar sodium orthovanadate) is added. The plate is incubated for 30 min at room temperature followed by washing with wash buffer (0.5% Tween 20 in phosphate buffered saline). Blocking buffer (3% bovine serum albumin, 0.05% Tween 20, 200 μM sodium orthovanadate in phosphate buffered saline, 100 μl/well) is added followed by incubation for 2 hours at room temperature followed by two washes with wash buffer. PY54 monoclonal anti-phosphotyrosine antibody directly conjugated to horseradish peroxidase (50 μl/well, 1 μg/ml in blocking buffer) or blocked conjugate (1 μg/ml with 1 mM phosphotyrosine in blocking buffer, to check specificity) is added and the plates incubated for 2 hours at room temperature. The plate wells are then washed 4 times with wash buffer. The colorimetric signal is developed by addition of TMB Microwell Peroxidase Substrate (Kirkegaard and Perry, Gaithersburg, Md.), 50 μl per well, and stopped by the addition of 0.09 M sulfuric acid, 50 μl per well. […] The increase in signal in EGF-treated cells over control (non-EGF treated) represents the activity of the EGFR or EGFR/chimera respectively. […] The selectivity of the compounds for erbB2 vs. EGFR is determined by comparison of the IC50 for the EGFR transfectant vs. that for the erbB2/EGFR chimera transfectant.
as §1

[4] = system: another carcinoma, which does not express the EGF receptor; details: carcinoma not expressing the EGF receptor; cited from earlier work
[5] = system: transplanted human mammary carcinoma, which expresses epidermal growth factor receptor tyrosine kinase (EGFR); details: EGFR-expressing human mammary carcinoma in athymic nude mice; cited from earlier work

SMILES	dermal toxicity (rash) [1]	IC50 [2]	erbB2/erbB1 ratio (selectivity) [3]	tumor growth [4]	tumor growth [5]
COc1cc2ncnc(Nc3ccc(F)c(Cl)c3)c2cc1OCCCN1CCOCC1 [ZD1839]	this adverse event was observed	–	–	–	–
CC(=O)NC/C=C/c1ccc2ncnc(Nc3ccc(Oc4ccc(C)nc4)c(Cl)c3)c2c1 [Example 5, E-N-(3-{4-[3-Chloro-4-(6-methyl-pyridin-3-yloxy)-phenylamino]-quinazolin-6-yl}-allyl)-acetamide]	–	21 to 50 nM	108	–	–
Cc1ccc(Oc2ccc(Nc3ncnc4ccc(/C=C/CNC(=O)C5CC5)cc34)cc2Cl)cn1 [Example 4, E-Cyclopropanecarboxylic acid (3-{4-[3-chloro-4-(6-methyl-pyridin-3-yloxy)-phenylamino]-quinazolin-6-yl}-allyl)-amide]	–	21 to 50 nM	142	–	–
COCC(=O)NCC#Cc1ccc2ncnc(Nc3ccc(Oc4cccc(OC)c4)c(C)c3)c2c1 [Example 3, 2-Methoxy-N-(3-{4-[4-(3-methoxy-phenoxy)-3-methyl-phenylamino]-quinazolin-6-yl}-prop-2-ynyl)-acetamide]	–	21 to 50 nM	103	–	–
COC1CCN(C(=O)NC(C)(C)C#Cc2ccc3ncnc(Nc4ccc(Oc5ccc(C)nc5)c(C)c4)c3c2)C1 (centres unmarked) [Example 8, 3-Methoxy-pyrrolidine-1-carboxylic acid (1,1-dimethyl-3-{4-[3-methyl-4-(6-methyl-pyridin-3-yloxy)-phenylamino]-quinazolin-6-yl}-prop-2-ynyl)-amide]	–	51 to 100 nM	308	–	–
COC(=O)NCC#Cc1ccc2ncnc(Nc3ccc(Oc4cccnc4)c(C)c3)c2c1 [Example 15, (3-{4-[3-Methyl-4-(pyridin-3-yloxy)-phenylamino]-quinazolin-6-yl}-prop-2-ynyl)-carbamic acid methyl ester]	–	51 to 100 nM	140	–	–
Cc1ccc(Oc2ccc(Nc3ncnc4ccc(/C=C/CNC(=O)C5CC5)cc34)cc2C)cn1 [Example 11, E-Cyclopropanecarboxylic acid (3-{4-[3-methyl-4-(6-methyl-pyridin-3-yloxy)-phenylamino]-quinazolin-6-yl}-allyl)-amide]	–	21 to 50 nM	122	–	–
Cc1cc(Nc2ncnc3ccc(C#CCNC(=O)CN(C)C)cc23)ccc1Oc1cccnc1 [Example 13, 2-Dimethylamino-N-(3-{4-[3-methyl-4-(pyridin-3-yloxy)-phenylamino]-quinazolin-6-yl}-prop-2-ynyl)-acetamide]	–	< 20 nM	182	–	–
Cc1ccc(Oc2ccc(Nc3ncnc4ccc(C#CCNC(=O)c5cc(C)no5)cc34)cc2C)cn1 [Example 16, 3-Methyl-isoxazole-5-carboxylic acid (3-{4-[3-methyl-4-(6-methyl-pyridin-3-yloxy)-phenylamino]-quinazolin-6-yl}-prop-2-ynyl)-amide]	–	21 to 50 nM	216	–	–
CC(=O)C(=O)NCC#Cc1ccc2ncnc(Nc3cnc(Oc4ccccc4)c(C)c3)c2c1 [Example 1, N-{3-[4-(5-Methyl-6-phenoxy-pyridin-3-ylamino)-quinazolin-6-yl]-prop-2-ynyl}-2-oxo-propionamide]	–	< 20 nM	101	–	–
Cc1ccc(Oc2ccc(Nc3ncnc4ccc(/C=C/CNC(=O)c5cc(C)on5)cc34)cc2C)cn1 [Example 6, E-5-Methyl-isoxazole-3-carboxylic acid (3-{4-[3-methyl-4-(6-methyl-pyridin-3-yloxy)-phenylamino]-quinazolin-6-yl}-allyl)-amide]	–	< 20 nM	437	–	–
COCC(=O)NC/C=C/c1ccc2ncnc(Nc3ccc(Oc4ccc(C)nc4)c(C)c3)c2c1 [Example 9, E-2-Methoxy-N-(3-{4-[3-methyl-4-(6-methyl-pyridin-3-yloxy)-phenylamino]-quinazolin-6-yl}-allyl)-acetamide]	–	21 to 50 nM	116	–	–
C#Cc1cccc(Nc2ncnc3cc(OCCOC)c(OCCOC)cc23)c1 [CP-358,774]	this adverse event was observed	–	–	–	–
C=CC(=O)Nc1cc2c(Nc3ccc(F)c(Cl)c3)ncnc2cc1OCCCN1CCOCC1 [CI-1033]	dermal toxicity in the form of a rash occurs	–	–	–	–
O=CN/C=C/c1cc(O)ccc1O [erbstatin]	–	–	–	without effect on the growth	selectively attenuates the growth
CCOc1cc2ncc(C#N)c(Nc3ccc(F)c(Cl)c3)c2cc1NC(=O)/C=C/CN(C)C [EKB-569]	dermal toxicity in the form of a rash occurs	–	–	–	–
Cc1cc(Nc2ncnc3ccc(C#CC4CCNCC4)cc23)ccc1Oc1cccnc1 [Example 14, [3-Methyl-4-(pyridin-3-yloxy)-phenyl]-(6-piperidin-4-ylethynyl-quinazolin-4-yl)-amine]	–	21 to 50 nM	196	–	–
Cc1cc(Nc2ncnc3ccc(/C=C/CNC(=O)C4CC4)cc23)ccc1Oc1cccnc1 [Example 2, E-Cyclopropanecarboxylic acid (3-{4-[3-methyl-4-(pyridin-3-yloxy)-phenylamino]-quinazolin-6-yl}-allyl)-amide]	–	21 to 50 nM	658	–	–
COC(=O)NC/C=C/c1ccc2ncnc(Nc3ccc(Oc4cccnc4)c(C)c3)c2c1 [Example 7, E-(3-{4-[3-Methyl-4-(pyridin-3-yloxy)-phenylamino]-quinazolin-6-yl}-allyl)-carbamic acid methyl ester]	–	21 to 50 nM	1133	–	–
CCNC(=O)NCC#Cc1ccc2ncnc(Nc3ccc(Oc4cccnc4)c(Cl)c3)c2c1 [Example 12, 1-(3-{4-[3-Chloro-4-(pyridin-3-yloxy)-phenylamino]-quinazolin-6-yl}-prop-2-ynyl)-3-ethyl-urea]	–	21 to 50 nM	121	–	–
CCNC(=O)NCC#Cc1ccc2ncnc(Nc3ccc(Oc4cccnc4)c(C)c3)c2c1 [Example 10, 1-Ethyl-3-(3-{4-[3-methyl-4-(pyridin-3-yloxy)-phenylamino]-quinazolin-6-yl}-prop-2-ynyl)-urea]	–	21 to 50 nM	112	–	–

Reference: patent publication US20030171386A1, “Small molecules for the treatment of abnormal cell growth” (Pfizer Inc., priority 2001, published 2003)
